According to patent publication US20020193441A1, “Prostanoid therapies for the treatment of glaucoma” (priority 2001, published 2002):

Experiments:
[1] = system: patients with open-angle glaucoma or ocular hypertension; assay: Clinical studies of travoprost (six, nine and twelve month studies pooled): IOP in black v. non-black patients; assay type: in vivo, human; conditions: for Mean IOP (overall) / IOP change from baseline: combined over visit and time of day; for Mean IOP (overall): pooled; for IOP change from baseline: three studies pooled, intent-to-treat
Procedure: The ability of travoprost to lower IOP was evaluated in three separate clinical trials, each involving the evaluation of both a low (0.0015%) and a high (0.004%) concentration composition. The studies differed in length, one lasting six months (hereinafter “six month study”), one lasting nine months (hereinafter “nine month study”) and one lasting twelve months (hereinafter “twelve month study”). The twelve month study was a triple-masked, parallel group, primary therapy study of the safety and efficacy of travoprost 0.0015% and travoprost 0.004% compared to timolol 0.5% and latanoprost 0.005% in patients with open-angle glaucoma or ocular hypertension. The term triple-masked is synonymous with the ICH E3 definition of double-blind. Patients of any race and either sex with open-angle glaucoma (with or without dispersion or pseudoexfoliation component) or ocular hypertension were qualified to participate in the studies. Pursuant to the study protocol, one group received travoprost 0.0015% topical ocular solution and dropped one drop once-daily in each eye at 8:00 p.m. A second group received travoprost 0.004% topical ocular solution and dropped one drop, once-daily in each eye at 8:00 p.m. A third group received vehicle only (placebo) and dropped one drop, once-daily in each eye at 8:00 a.m. A fourth group received timolol 0.5% topical ocular solution and dropped one drop, twice-daily in each eye at 8:00 a.m. and 8:00 p.m. A fifth group received latanoprost 0.005% topical ocular solution and dropped one drop, once-daily in each eye at 8:00 p.m. For evaluation purposes, the primary efficacy variable was mean intraocular pressure (IOP) in patient's worse eye. Safety was based on ocular and systemic parameters including hyperemia, flare, iris color, visual acuity, slit-lamp examinations, endothelial cell density, pachymetry, blood pressure and pulse, laboratory assessments, dilated fundus examinations, automated perimetry and adverse events. Repeated measures analysis of variance was used to test differences among treatment groups and to calculate 95% confidence limits about the differences between groups. The six month study was a triple-masked, parallel group, primary therapy study of the safety and efficacy of travoprost 0.0015% and travoprost 0.004% compared to timolol 0.5% in patients with open-angle glaucoma or ocular hypertension. The term triple-masked is synonymous with the ICH E3 definition of double-blind. Patients of any race and either sex with open-angle glaucoma (with or without dispersion or pseudoexfoliation component) or ocular hypertension were qualified to participate in the studies. Pursuant to the study protocol, one group received travoprost 0.0015% topical ocular solution and dropped one drop once-daily in each eye at 8:00 p.m. A second group received travoprost 0.004% topical ocular solution and dropped one drop, once-daily in each eye at 8:00 p.m. A third group received vehicle only (placebo) and dropped one drop, once-daily in each eye at 8:00 a.m. A fourth group received timolol 0.5% topical ocular solution and dropped one drop, twice-daily in each eye at 8:00 a.m. and 8:00 p.m. For evaluation purposes, the primary efficacy variable was mean intraocular pressure (IOP) in patient's worse eye. Safety was based on ocular and systemic parameters including hyperemia, aqueous cells and flare, iris pigmentation, visual acuity, slit-lamp biomicroscopy, blood pressure and pulse, laboratory assessments, dilated fundus examinations, automated perimetry and adverse events. Repeated measures analysis of variance was used to test differences among treatment groups and to calculate 95% confidence limits about the differences between groups. The nine month study was a triple-masked, parallel group, primary therapy study of the safety and efficacy of travoprost 0.0015% and travoprost 0.004% compared to timolol 0.5% and latanoprost 0.005% in patients with open-angle glaucoma or ocular hypertension. […]

[2] = system: black and non-black patients; assay: Dose-response evaluations: travoprost concentration and IOP response in black and non-black patients; assay type: in vivo, human
Description: Dose-response studies were undertaken to evaluate the relationship between travoprost and IOP response in black and non-black patients. […] FIG. 1 depicts the relationship between log concentration and IOP for black patients versus non-black patients. For black patients, IOP went from approximately 28 mmHg at a concentration of 0.00009% travoprost to approximately 18.5 mmHg at 0.004% travoprost. For non-black patients, IOP went from approximately 23 mmHg at 0.00009% travoprost to approximately 18 mmHg at 0.004% travoprost. FIG. 2 depicts the relationship between log concentration and IOP change. IOP change went from approximately −1 mmHg to approximately −7.75 mmHg for black patients and from approximately −3.25 mmHg to approximately −7.25 mmHg for non-black patients. FIGS. 1 and 2 depict a comparison of IOP or IOP change to log concentration to illustrate the significance of the dose-response difference between the two groups. FIGS. 3 and 4 depict the same relationships using actual concentrations.

[3] = travoprost 0.0015%, black patients
[4] = travoprost 0.0015%, non-black patients
[5] = travoprost 0.004%, black patients
[6] = travoprost 0.004%, non-black patients

`CC(C)OC(=O)CCC/C=C\C[C@@H]1[C@@H](/C=C/[C@@H](O)COc2cccc(C(F)(F)F)c2)[C@H](O)C[C@@H]1O` [Travoprost, travoprost] was tested, and the “Further IOP reduction when dose increased from 0.0015% to 0.004%” value ([1]; blacks) was “statistically significant further reduction”, the “Further IOP reduction when dose increased from 0.0015% to 0.004%” value ([1]; caucasians (non-blacks)) was “no further reduction” and the “Subgroup difference in mean IOP between black and non-black patients (analysis of variance)” value ([1]; travoprost 0.0015% analysis) was “No statistically significant subgroup differences”. For the same compound, the “Difference in IOP change from baseline between blacks and non-blacks” value ([1]; travoprost 0.0015% dose) was “no significant difference”, the “Mean IOP (combined over visit)” value ([1]; travoprost 0.0015%, black patients, 4 p.m.) was 17.8 mmHg and the “Mean IOP (combined over visit)” value ([1]; travoprost 0.0015%, black patients, 8 a.m.) was 19.6 mmHg. The “Mean IOP (combined over visit)” value ([1]; travoprost 0.0015%, black patients, 10 a.m.) was 18.4 mmHg, the “Mean IOP (overall)” value [1, 3] was 18.6 mmHg and the “IOP change from baseline” value [1, 3] was −7.1 mmHg. For the same compound, the “Mean IOP (combined over visit)” value ([1]; travoprost 0.0015%, non-black patients, 4 p.m.) was 18.2 mmHg, the “Mean IOP (combined over visit)” value ([1]; travoprost 0.0015%, non-black patients, 8 a.m.) was 19.4 mmHg and the “Mean IOP (combined over visit)” value ([1]; travoprost 0.0015%, non-black patients, 10 a.m.) was 18.5 mmHg. For the same compound, the “Mean IOP (overall)” value [1, 4] was 18.7 mmHg, the “IOP change from baseline” value [1, 4] was −7.1 mmHg and the “Subgroup difference in mean IOP between black and non-black patients (analysis of variance)” value ([1]; travoprost 0.004% analysis) was “significant subgroup difference”. For the same compound, the “Subgroup difference in mean IOP, black lower than non-black” value ([1]; travoprost 0.004%, 4 PM) was 1.1 mmHg, the “Subgroup difference in mean IOP, black lower than non-black” value ([1]; travoprost 0.004%, 8 AM) was 0.8 mmHg and the “Subgroup difference in mean IOP, black lower than non-black” value ([1]; travoprost 0.004%, 10 AM) was 1.5 mmHg. The “Mean IOP (combined over visit)” value ([1]; travoprost 0.004%, black patients, 4 p.m.) was 16.8 mmHg, the “Mean IOP (combined over visit)” value ([1]; travoprost 0.004%, black patients, 8 a.m.) was 18.6 mmHg and the “Mean IOP (combined over visit)” value ([1]; travoprost 0.004%, black patients, 10 a.m.) was 16.8 mmHg. The “Mean IOP (overall)” value [1, 5] was 17.4 mmHg, the “IOP change from baseline” value [1, 5] was −8.1 mmHg and the “Difference in mean IOP, black lower than non-black” value ([1]; travoprost 0.004%, combined (8 a.m., 10 a.m., and 4 p.m.) results) was “up to 1.5 mmHg”. For the same compound, the “Mean IOP (combined over visit)” value ([1]; travoprost 0.004%, non-black patients, 4 p.m.) was 18.0 mmHg, the “Mean IOP (combined over visit)” value ([1]; travoprost 0.004%, non-black patients, 8 a.m.) was 19.3 mmHg and the “Mean IOP (combined over visit)” value ([1]; travoprost 0.004%, non-black patients, 10 a.m.) was 18.3 mmHg. The “Mean IOP (overall)” value [1, 6] was 18.5 mmHg, the “IOP change from baseline” value [1, 6] was −7.5 mmHg and the “Difference in mean IOP, black lower than non-black” value ([1]; travoprost 0.004%, overall result) was 1.1 mmHg. The “IOP (FIG. 1)” value ([2]; 0.00009% travoprost, black patients) was “approximately 28 mmHg”, the “IOP (FIG. 1)” value ([2]; 0.00009% travoprost, non-black patients) was “approximately 23 mmHg” and the “IOP (FIG. 1)” value ([2]; 0.004% travoprost, black patients) was “approximately 18.5 mmHg”. For the same compound, the “IOP (FIG. 1)” value ([2]; 0.004% travoprost, non-black patients) was “approximately 18 mmHg”, the “Dose-response based on comparison slopes” value ([2]; black patients compared with non-black patients) was “much more pronounced dose-response” and the “IOP change (FIG. 2)” value ([2]; black patients, high end of concentration range ('to')) was “approximately −7.75 mmHg”. The “IOP change (FIG. 2)” value ([2]; black patients, low end of concentration range ('from')) was “approximately −1 mmHg”, the “Mean IOP versus dose” value ([2]; both race subgroups) was “reduced significantly with increasing dose” and the “IOP change (FIG. 2)” value ([2]; non-black patients, high end of concentration range ('to')) was “approximately −7.25 mmHg”. The “IOP change (FIG. 2)” value ([2]; non-black patients, low end of concentration range ('from')) was “approximately −3.25 mmHg”.
